Experimental data reported in paper PMC3402085 (ACS medicinal chemistry letters, 2012).

Legend:
[1] = test system: PC-12 cells expressing mutant G93A SOD1; experiment: Mutant SOD1-induced cytotoxicity protection assay; type: cell-based; conditions: result in words
[2] = test system: primary cortical neurons; experiment: Primary cortical neuron protection assay; type: cell-based; conditions: result in words
[3] = test system: PC-12 cells expressing mutant G93A SOD1; conditions: result in words; previously prepared compound; cited from earlier work

C[C@H](Oc1cc(C(F)(F)F)cc(C(F)(F)F)c1)C1CC(=O)CC(=O)C1 [1b]
protection against mutant SOD1 induced toxicity in PC-12 cells [1]: protective | activity in cortical neurons [2]: active

O=C1CC(=O)CC([C@@H]2C[C@H]2c2cc(C(F)(F)F)cc(C(F)(F)F)c2)C1 [2b]
protection against mutant SOD1 induced toxicity in PC-12 cells [1]: protective | activity in cortical neurons [2]: active

O=C1CC(=O)CC(c2cc(C(F)(F)F)cc(C(F)(F)F)c2)C1 [compound 13]
inhibition of protein aggregation in PC-12 cells expressing mutant G93A SOD1 [3]: potent inhibitor
